In patent US20250269039A1, “THERAPEUTIC-OLIGONUCLEOTIDES ACTIVATED BY NUCLEASES” (priority 2020, published 2025):
Like-named read-outs stand apart in the source and are kept apart here.

Tests used:
[1] = test system: S. enterica ATCC 14028; assay: Broth microdilution MIC and growth inhibition (control bacteria); format: cell-based; conditions: for MIC: TOUCAN as NA equivalent
Text: (§1) Bacteria strains. S. aureus NCTC 12493 (MRSA), S. aureus ATCC 29213 (MSSA), S. aureus ATCC 43300 (MRSA), S. aureus ATCC 1707 (MRSA), S. aureus ATCC 1717 (MRSA), S. aureus ATCC 1747 (MRSA), S. aureus ATCC 1761 (MRSA), S. aureus ATCC 1766 (MRSA), S. aureus ATCC 1768 (MRSA), S. epidermidis ATCC 35984, E. coli ATCC 25922, K. pneumoniae ATCC 13883, P. mirabilis ATCC 25933, S. enterica ATCC 14028 and P. aeruginosa ATCC 10145 strains were used in this study. Bacteria were initially inoculated onto tryptone soy agar with 5% defibrinated sheep blood (Thermo Fisher Scientific, Inc., Waltham, MA, USA) and incubated at 37° C. for 24 hours. Then, single colonies of each strain were transferred to tryptone soy broth (Thermo Fisher Scientific) for the nuclease activity assay or antimicrobial susceptibility testing, respectively.
(§2) Antimicrobial susceptibility testing. Minimal inhibitory concentrations (MIC) of all nucleoside analogues and TOUCANs against each bacteria strain were determined using broth microdilution method. A single colony obtained from overnight culture on tryptone soy agar with 5% defibrinated sheep blood was inoculated in cation-adjusted Mueller Hinton Broth and adjusted to 10^6 CFU/mL. TOUCANs were prepared in PBS+/+ (treatment) and serial dilutions were made in 96-well polystyrene round bottom microwell plates with 50 μL final volume for each concentration. PBS+/+ was used as untreated control. Next, 50 μL bacteria solutions were added to each well to a final bacteria concentration of 5×10^5 CFU/mL. Plates were incubated at 37° C. in Cytation 1 Cell Imaging Multimode Reader. Growth curves were obtained by measuring optical densities at 600 nm every 10 minutes for 18 hours using Cytation 1 Cell Imaging Multimode Reader. In addition, visual inspection of the plates was carried out after 18 hours and photographs were taken. MICs were defined as the lowest drug concentration in the microwell at which bacterial growth was not visible at the end of the incubation period. Besides MIC determination, specificity of TOUCAN 7mGe was also shown with subcultures on chromogenic media. For this purpose, 5 μL of different concentrations of each strain were inoculated onto CHROM agar Orientation Media (Becton Dickinson) and the bacterial growth of each bacteria strain tested was observed by naked eye after incubation at 37° C. for 24 hours. Finally, photographs of the chromogenic media were taken.

[2] = test system: K. pneumoniae ATCC 13883; assay: as above; format: cell-based; conditions: for MIC: TOUCAN as NA equivalent
Text: as §1, §2

[3] = test system: P. aeruginosa ATCC 10145; assay: as above; format: cell-based; conditions: for MIC: TOUCAN as NA equivalent
Text: as §1, §2

[4] = test system: E. coli ATCC 25922; assay: as above; format: cell-based, Escherichia coli; conditions: for MIC: TOUCAN as NA equivalent
Text: as §1, §2

[5] = test system: P. mirabilis ATCC 25933; assay: as above; format: cell-based, Proteus mirabilis; conditions: for MIC: TOUCAN as NA equivalent
Text: as §1, §2

[6] = test system: S. aureus ATCC 1766 (MRSA); assay: Broth microdilution MIC and growth inhibition; format: cell-based, Staphylococcus aureus; conditions: for MIC: 18 h, TOUCAN as NA equivalent; for growth inhibition, dose response: ATCC-1766 (MRSA), FIGS. 5e-f
Text: as §1, §2

[7] = test system: S. aureus ATCC1766; assay: Mouse thigh muscle infection model: gross pictures, histopathology, bacteria counts; format: in vivo, mice; conditions: for histopathological analysis of infected leg / visible bacterial infection of infected leg (gross photographs): mice, i.v.; for histopathological analysis of infected leg: 20 mg/kg/24 hour Floxuridine equivalent, FIG. 7d-g; for visible bacterial infection of infected leg (gross photographs): four doses equivalent to 5 mg/kg Floxuridine over 24 hours, FIG. 7a-c
Method: In vivo assessment of the therapeutic efficacy of TOUCANs in a mouse infection model. All animal experiments described in this study were conducted at the Linköping University Center for Biomedical Resources and were approved by the Swedish Ethical Board “Jordbruksverket” under the animal protocol 1253. All experiments were conducted according to the principles expressed in the Declaration of Helsinki. Six-weeks old female […] mice were divided into three different groups: Placebo (saline solution), Floxuridine alone and TOUCAN 7mFx, with 8 mice per group. First, to induce the infection, S. aureus ATCC1766 strain was cultured on tryptone soy agar with 5% defibrinated sheep blood, and single colonies were transferred to 25 mL tryptone soy broth and incubated at 37° C. for 12 hours with 200 rpm shaking. Next, bacteria solution was diluted 1/100 using PBS+/+ (˜10^7 CFU/mL) and 50 μL (˜5×10^5 CFU) were injected into the right thigh muscles of all mice under sterile conditions and 2% isoflurane anesthesia. This method was optimized based on our previous animal infection model.^16 In this model, the left uninfected leg was used as control for each animal. This model induces reproducible infections after 24 hours. Next, the therapeutic regime was adapted from a previous study that validated the efficacy of several antibiotics against S. aureus.^28 We have treated the mice for 24 hours with four doses of TOUCAN 7mFx equivalent to 5 mg/kg of Floxuridine in 100 μL of PBS−/−, administered intravenously by tail vein injections. The first dose was administered after 2 hours post-inoculation, followed by 3 additional injections at the same concentration every 6 hours. In total, each animal was given TOUCAN 7mFx equivalent to 20 mg/kg/24 hour of Floxuridine. In this study, two additional groups, Placebo and Floxuridine alone, were also tested in infected animals. In the Placebo group, mice were injected with a saline solution (PBS), and in the Floxuridine group, mice were injected with 20 mg/kg/24 hours of Floxuridine under the same conditions indicated for TOUCAN 7mFx. After 24 hours, blood samples were collected, and mice were euthanized. For a thorough blood analysis, we have included an additional group of uninfected/untreated mice as control. Next, gross pictures of both legs were taken and samples for histopathological and bacteriological analyses were collected. At least four mice per group per analysis were used in this study.
Gross pictures. Once the mice were euthanized, the skin from legs and dorsal part was removed very carefully to allow observation of the bacterial infection and the associated tissue damage. Next, photographs were taken to document the localized infection for each animal.
Histopathological analysis. To evaluate the histopathological features of infected and uninfected tissues, the thigh muscles of the animals were dissected. Subsequently, tissues were transferred to 4% buffered formaldehyde solution and stored at 4° C. for 24 hours. Then, tissues were removed from the formaldehyde solution and transferred into 50% ethanol for 15 minutes followed by 70% ethanol until processed. Next, tissues were fixed, dehydrated and wax infiltrated using a Leica TP1020 system for 7 hours. Subsequently, tissues were embedded in paraffin using a Leica EG 1150 system. The sections slides were prepared using an Automatic Rotary Microtome HM355S system and finally, samples were stained with Hematoxylin-Eosin (H&E) using an Automatic Leica ST4020 Linear Stainer. The slides were imaged using an Olympus BX51 light microscope.
Bacteria counts. To measure viable bacteria in mice, infected and uninfected tissues from both legs were collected, transferred to individual 1.5 mL vials and weighted on a microbalance. Each sample was homogenized in 1 mL of PBS using Fisherbrand Bead Mill 4 automatic homogenizer (Fisher Scientific). The homogenized solutions were serially diluted to 1:100, 1:1.000, 1:10.000 and 1:100.000. […]

[8] = infected leg, CFU/g, after 24 hours, FIG. 7h

O=c1[nH]c(=O)n([C@H]2C[C@H](O)[C@@H](CO)O2)cc1F [Floxuridine, reference compound]
MIC ([1]; Salmonella enterica, ATCC14028, 18 h, read-out: MIC): 20 µg/mL | MIC ([2]; Klebsiella pneumoniae, ATCC13883, 18 h, read-out: MIC): 20 µg/mL | MIC ([3]; Pseudomonas aeruginosa, ATCC10145, 18 h, read-out: MIC): > 40 µg/mL | MIC ([4]; Escherichia coli, ATCC25922, 18 h, read-out: MIC): 20 µg/mL | MIC ([5]; Proteus mirabilis, ATCC25933, 18 h, read-out: MIC): 5 µg/mL | MIC ([6]; Staphylococcus aureus, S. aureus ATCC 1766 (MRSA), read-out: MIC): 0.04 µg/mL | bacteria count of infected leg ([7]; infected leg, after 24 hours, FIG. 7h): high bacteria count | histopathological analysis of infected leg [7]: clear evidence of bacterial infection, inflammation, and neutrophil infiltration | visible bacterial infection of infected leg (gross photographs) [7]: slightly stronger infection

mU-mU-mU-mU-T-T-Fx [TOUCAN 7mFx]
MIC ([1]; 18 h): >40 µg/mL | TOUCAN % Growth inhibition ([1]; mean ± SD, n = 3): 10.8 ± 2.1% | MIC ([2]; 18 h): >40 µg/mL | TOUCAN % Growth inhibition ([2]; mean ± SD, n = 3): 0 ± 0.00% | MIC ([3]; 18 h): >40 µg/mL | TOUCAN % Growth inhibition ([3]; mean ± SD, n = 3): 7.2 ± 1.4% | MIC ([4]; 18 h): >40 µg/mL | TOUCAN % Growth inhibition ([4]; mean ± SD, n = 3): 0 ± 0.00% | MIC ([5]; 18 h): >40 µg/mL | TOUCAN % Growth inhibition ([5]; mean ± SD, n = 3): 45.5 ± 0.4% | growth inhibition, dose response ([6]; 0.31 μg/mL): partial inhibition | growth inhibition, dose response ([6]; concentrations from 0.62 to 10 μg/mL): efficient inhibition | TOUCAN MIC/NA MIC TOUCAN Efficacy Ratio (TER) ([6]; S. aureus ATCC 1766 (MRSA)): 15.5 | MIC ([6]; S. aureus ATCC 1766 (MRSA)): 0.62 µg/mL | TOUCAN % Growth inhibition ([6]; S. aureus ATCC 1766 (MRSA), mean ± SD, n = 3): 93.6 ± 0.1% | times less bacteria recovered compared to Floxuridine group [7, 8]: 2949 times | times less bacteria recovered compared to Placebo group [7, 8]: 642 times | histopathological analysis of infected leg [7]: minimal inflammation with residual neutrophil infiltration | visible bacterial infection of infected leg (gross photographs) [7]: do not show any visible signs of bacterial infection
